Data: ChEMBL document CHEMBL1201862, “PubChem BioAssay data set” (2004)
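48-hour exposure; five concentrations; linearly interpolated endpoints. GI50 is the concentration that inhibits growth by half.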 Activity calls are given as the source filed them. Cut-off read from the data, not from the text of the source: active = GI50 up to about 1.1 µM and inactive = higher.

Tests used:
Assay in all cases: inhibition of tumour cell growth, NCI panel, 48 h
A498 = test system: A498
EKVX = test system: EKVX
HCC 2998 = test system: HCC 2998
HCT-15 = test system: HCT-15
HOP-62 = test system: HOP-62
LOX IMVI = test system: LOX IMVI
MDA-MB-435 = test system: MDA-MB-435
MOLT-4 = test system: MOLT-4
NCI-H226 = test system: NCI-H226
NCI-H460 = test system: NCI-H460
OVCAR-3 = test system: OVCAR-3
RPMI-8226 = test system: RPMI-8226
SF-268 = test system: SF-268
SK-MEL-2 = test system: SK-MEL-2
SN12C = test system: SN12C
SW-620 = test system: SW-620
T47D = test system: T47D
UACC-257 = test system: UACC-257
UACC-62 = test system: UACC-62
SK-MEL-5 = test system: SK-MEL-5

| Structure (SMILES) | GI50 (A498) | GI50 (EKVX) | GI50 (HCC 2998) | GI50 (HCT-15) [µM] | GI50 (HOP-62) | GI50 (LOX IMVI) | GI50 (MDA-MB-435) | GI50 (MOLT-4) | GI50 (NCI-H226) | GI50 (NCI-H460) | GI50 (OVCAR-3) | GI50 (RPMI-8226) | GI50 (SF-268) | GI50 (SK-MEL-2) | GI50 (SN12C) | GI50 (SW-620) | GI50 (T47D) | GI50 (UACC-257) | GI50 (UACC-62) | GI50 (SK-MEL-5) |
| --- | --- | --- | --- | --- | --- | --- | --- | --- | --- | --- | --- | --- | --- | --- | --- | --- | --- | --- | --- | --- |
| CC#CC#C/C=C1/O[C@]2(CCC(OC(C)=O)CO2)[C@@H]2O[C@H]12 (some centres not stated) | 22.2 µM (inactive) | 31.5 µM (inactive) | 18.5 µM (inactive) | 16.6 | 37.2 µM (inactive) | 15.1 µM (inactive) | 22.1 µM (inactive) | 17 µM (inactive) | 20.4 µM (inactive) | 18.1 µM (inactive) | 29.4 µM (inactive) | 27.2 µM (inactive) | 27.8 µM (inactive) | 16.8 µM (inactive) | 20.6 µM (inactive) | 25.7 µM (inactive) | 15.3 µM (inactive) | 21.6 µM (inactive) | 16.6 µM (inactive) |  |
| CCN(CCCl)c1cc(CN(C)C)cc(NC(=O)c2ccc(C(=O)Nc3ccccc3)cc2)c1 | 0.316 µM (active) |  | 0.789 µM (active) | 1.7 | 0.314 µM (active) | 0.204 µM (active) | 0.239 µM (active) | 0.284 µM (active) | 1.53 µM (inactive) | 0.275 µM (active) |  | 0.307 µM (active) | 0.337 µM (active) | 0.27 µM (active) | 0.767 µM (active) | 0.15 µM (active) | 1.24 µM (inactive) | 1.3 µM (inactive) | 1.29 µM (inactive) | 0.194 µM (active) |
| CC1=Nc2ccccc2OC(C)=C1/N=N/c1ccc2[nH]c(C)nc2c1 | 24.4 µM (inactive) | > 100 µM (inactive) | > 100 µM (inactive) | > 100 | > 100 µM (inactive) | 66.2 µM (inactive) | > 100 µM (inactive) | > 100 µM (inactive) | > 100 µM (inactive) | 55.2 µM (inactive) | > 100 µM (inactive) | > 100 µM (inactive) | > 100 µM (inactive) | > 100 µM (inactive) | 84.7 µM (inactive) | > 100 µM (inactive) | 50.9 µM (inactive) | > 100 µM (inactive) | 83.4 µM (inactive) |  |
| COC(=O)/C(C)=N/N=C(\S)SC | > 100 µM (inactive) | > 100 µM (inactive) | 40.6 µM (inactive) | 36.7 | > 100 µM (inactive) | 37.2 µM (inactive) | 60.5 µM (inactive) | 55.1 µM (inactive) | > 100 µM (inactive) | 26.9 µM (inactive) | 24.8 µM (inactive) | 66.4 µM (inactive) | 21.8 µM (inactive) | 31 µM (inactive) |  | 44.3 µM (inactive) | 18.1 µM (inactive) | 50.9 µM (inactive) |  | 29.2 µM (inactive) |
| CCN(CC)Cc1cc(Nc2c3ccccc3nc3c4ccccc4n(C)c23)cc(CN(CC)CC)c1O | 6.07 µM (inactive) | 4.59 µM (inactive) | 5.11 µM (inactive) | 4.1 | 4.4 µM (inactive) |  | 3.01 µM (inactive) | 1.63 µM (inactive) | 11.2 µM (inactive) | 3.89 µM (inactive) | 2.43 µM (inactive) | 2.1 µM (inactive) | 6.78 µM (inactive) | 2.67 µM (inactive) | 6.61 µM (inactive) | 3.12 µM (inactive) | 3.18 µM (inactive) | 2.73 µM (inactive) | 2.81 µM (inactive) | 1.65 µM (inactive) |
| CCc1c(CNC2=NCCN2)c(CC)c(CNC2=NCCN2)c(CC)c1CNC1=NCCN1 | > 100 µM (inactive) | > 100 µM (inactive) | > 100 µM (inactive) | > 100 | > 100 µM (inactive) |  | > 100 µM (inactive) | > 100 µM (inactive) | > 100 µM (inactive) | > 100 µM (inactive) | > 100 µM (inactive) | > 100 µM (inactive) | > 100 µM (inactive) | > 100 µM (inactive) | > 100 µM (inactive) | > 100 µM (inactive) | > 100 µM (inactive) | > 100 µM (inactive) | > 100 µM (inactive) | > 100 µM (inactive) |
